Measured values taken from PubChem BioAssay AID256 (DTP/NCI, 2004).
Where “and” joins values, the source holds several entries; their conditions need not be identical. Identical values can stand only once. Toxic doses and inconclusive results are not listed. The calls were made as follows: active = survival T/C of 150% or more; inactive = T/C below 125% in these data.

Test system: CD2F1 mice, L1210 leukemia ip, survival T/C
Assay: NCI In Vivo Anticancer Drug Screen. Data for tumor model L1210 Leukemia (intraperitoneal) in CD2F1 (CDF1) mice
Settings: higher = longer survival
Outline: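 Implant tumor; dose compound or vehicle; measure endpoint in both groups; report treated divided by control.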

[1] = endpoint: mean survival time, dose: 100.0 mg/kg/injection, schedule: Q04DX003 (ip), vehicle: saline with Tween-80
[2] = endpoint: mean survival time, dose: 200.0 mg/kg/injection, schedule: Q04DX003 (ip), vehicle: saline with Tween-80
[3] = endpoint: mean survival time, dose: 50.0 mg/kg/injection, schedule: Q01DX009 (ip), vehicle: saline with Tween-80
[4] = endpoint: mean survival time, dose: 100.0 mg/kg/injection, schedule: Q01DX009 (ip), vehicle: saline with Tween-80

Measured: T/C

CCOC(=O)C1(C(=O)OCC)C(C)CC(OCC)N1C(=O)c1cc2c(cc1[N+](=O)[O-])OCO2 (configuration not stated)
inactive: endpoint: mean survival time, dose: 100.0 mg/kg/injection, schedule: Q01DX001 (ip), vehicle: Klucel (hydroxypropylcellulose) (HPC) 100 % of control | endpoint: mean survival time, dose: 200.0 mg/kg/injection, schedule: Q01DX001 (ip), vehicle: Klucel (hydroxypropylcellulose) (HPC) 100 % of control | endpoint: mean survival time, dose: 400.0 mg/kg/injection, schedule: Q01DX001 (ip), vehicle: Klucel (hydroxypropylcellulose) (HPC) 100 % of control

COC(=O)c1ccc(C)cc1C(=O)OC
inactive: [1] 97 % of control | [2] 92 % of control

CC(C)C/C(=N\Nc1ccccc1)c1ccccn1
inactive: endpoint: mean survival time, dose: 100.0 mg/kg/injection, schedule: Q01DX001 (ip), vehicle: saline 101 % of control | endpoint: mean survival time, dose: 200.0 mg/kg/injection, schedule: Q01DX001 (ip), vehicle: saline 100 % of control | endpoint: mean survival time, dose: 400.0 mg/kg/injection, schedule: Q01DX001 (ip), vehicle: saline 97 % of control

Clc1ccc(NC2=NCCO2)cc1
inactive: endpoint: mean survival time, dose: 100.0 mg/kg/injection, schedule: Q04DX003 (ip), vehicle: Klucel (hydroxypropylcellulose) (HPC) 94 % of control

COc1cn(C2OC(CO)C(O)C2O)c(=O)nc1N (configuration not stated)
inactive: endpoint: median survival time, dose: 25.0 mg/kg/injection, schedule: Q01DX005 (ip), vehicle: saline 114 % of control | endpoint: median survival time, dose: 50.0 mg/kg/injection, schedule: Q01DX005 (ip), vehicle: saline 111 % of control | endpoint: median survival time, dose: 100.0 mg/kg/injection, schedule: Q01DX005 (ip), vehicle: saline 114 % of control

COC12[C@@H]3N[C@@H]3CN1C1=C(C(=O)C(N3CCCC(O)C3)=C(C)C1=O)[C@@H]2COC(N)=O (some centres not stated)
inactive: endpoint: median survival time, dose: 3.0 mg/kg/injection, schedule: Q01DX001 (ip), vehicle: saline 106 % of control | endpoint: median survival time, dose: 6.0 mg/kg/injection, schedule: Q01DX001 (ip), vehicle: saline 111 % of control | endpoint: median survival time, dose: 12.0 mg/kg/injection, schedule: Q01DX001 (ip), vehicle: saline 118 % of control and 98 % of control | endpoint: median survival time, dose: 24.0 mg/kg/injection, schedule: Q01DX001 (ip), vehicle: saline 108 % of control | endpoint: median survival time, dose: 48.0 mg/kg/injection, schedule: Q01DX001 (ip), vehicle: saline 112 % of control

N#C/C(C(=S)S)=C(/O)c1ccccc1
inactive: endpoint: mean survival time, dose: 25.0 mg/kg/injection, schedule: Q01DX009 (ip), vehicle: saline with Tween-80 102 % of control | [3] 101 % of control | [4] 102 % of control | [1] 94 % of control

Cc1ccc(S(=O)(=O)O)c2c([N+](=O)[O-])cccc12
inactive: [1] 100 % of control | [2] 104 % of control | endpoint: mean survival time, dose: 400.0 mg/kg/injection, schedule: Q04DX003 (ip), vehicle: saline with Tween-80 96 % of control

COc1ccc(/C(C)=N\NC(=O)c2ccccc2)cc1
inactive: [3] 91 % of control | [4] 94 % of control | [1] 98 % of control | endpoint: mean survival time, dose: 200.0 mg/kg/injection, schedule: Q01DX009 (ip), vehicle: saline with Tween-80 89 % of control | [2] 104 % of control

O=C(O)CSc1c(Cl)c(=O)oc2ccc(Cl)cc12
inactive: endpoint: median survival time, dose: 6.25 mg/kg/injection, schedule: Q01DX009 (ip), vehicle: Klucel (hydroxypropylcellulose) (HPC) 101 % of control | endpoint: median survival time, dose: 12.5 mg/kg/injection, schedule: Q01DX009 (ip), vehicle: Klucel (hydroxypropylcellulose) (HPC) 101 % of control | endpoint: median survival time, dose: 25.0 mg/kg/injection, schedule: Q01DX009 (ip), vehicle: Klucel (hydroxypropylcellulose) (HPC) 97 % of control | endpoint: median survival time, dose: 50.0 mg/kg/injection, schedule: Q01DX009 (ip), vehicle: Klucel (hydroxypropylcellulose) (HPC) 94 % of control | endpoint: median survival time, dose: 100.0 mg/kg/injection, schedule: Q01DX009 (ip), vehicle: Klucel (hydroxypropylcellulose) (HPC) 108 % of control | endpoint: median survival time, dose: 200.0 mg/kg/injection, schedule: Q01DX009 (ip), vehicle: Klucel (hydroxypropylcellulose) (HPC) 104 % of control

Cc1cc(N(CCCl)CCCl)ccc1N=Nc1ccccc1C(=O)O
inactive: endpoint: mean survival time, dose: 2.0 mg/kg/injection, schedule: Q01DX009 (ip), vehicle: saline with Tween-80 112 % of control | endpoint: mean survival time, dose: 4.0 mg/kg/injection, schedule: Q01DX009 (ip), vehicle: saline with Tween-80 120 % of control | endpoint: mean survival time, dose: 4.0 mg/kg/injection, schedule: Q04DX003 (ip), vehicle: saline with Tween-80 102 % of control | endpoint: mean survival time, dose: 5.0 mg/kg/injection, schedule: Q01DX009 (ip), vehicle: saline 114 % of control and 106 % of control | endpoint: mean survival time, dose: 8.0 mg/kg/injection, schedule: Q01DX009 (ip), vehicle: saline with Tween-80 120 % of control | endpoint: mean survival time, dose: 8.0 mg/kg/injection, schedule: Q04DX003 (ip), vehicle: saline with Tween-80 109 % of control | endpoint: mean survival time, dose: 10.0 mg/kg/injection, schedule: Q01DX001 (ip), vehicle: saline with Tween-80 106 % of control | endpoint: mean survival time, dose: 10.0 mg/kg/injection, schedule: Q01DX009 (ip), vehicle: saline with Tween-80 114 % of control | endpoint: mean survival time, dose: 10.0 mg/kg/injection, schedule: Q01DX009 (ip), vehicle: saline 115 % of control and 120 % of control | endpoint: mean survival time, dose: 10.0 mg/kg/injection, schedule: Q03DX003 (ip), vehicle: saline 113 % of control | endpoint: mean survival time, dose: 16.0 mg/kg/injection, schedule: Q04DX003 (ip), vehicle: saline with Tween-80 115 % of control | endpoint: mean survival time, dose: 20.0 mg/kg/injection, schedule: Q01DX001 (ip), vehicle: saline with Tween-80 102 % of control | endpoint: mean survival time, dose: 20.0 mg/kg/injection, schedule: Q01DX009 (ip), vehicle: saline with Tween-80 109 % of control | endpoint: mean survival time, dose: 20.0 mg/kg/injection, schedule: Q01DX009 (ip), vehicle: saline 122 % of control | endpoint: mean survival time, dose: 32.0 mg/kg/injection, schedule: Q01DX009 (ip), vehicle: saline with Tween-80 97 % of control | endpoint: mean survival time, dose: 40.0 mg/kg/injection, schedule: Q01DX001 (ip), vehicle: saline with Tween-80 115 % of control and 120 % of control | endpoint: mean survival time, dose: 40.0 mg/kg/injection, schedule: Q01DX007 (ip), vehicle: saline 100 % of control | endpoint: mean survival time, dose: 40.0 mg/kg/injection, schedule: Q01DX009 (ip), vehicle: saline 89 % of control | endpoint: mean survival time, dose: 64.0 mg/kg/injection, schedule: Q04DX003 (ip), vehicle: saline with Tween-80 103 % of control | endpoint: mean survival time, dose: 80.0 mg/kg/injection, schedule: Q01DX001 (ip), vehicle: saline with Tween-80 117 % of control and 91 % of control | endpoint: mean survival time, dose: 160.0 mg/kg/injection, schedule: Q01DX001 (ip), vehicle: saline with Tween-80 102 % of control | endpoint: median survival time, dose: 5.0 mg/kg/injection, schedule: Q01DX009 (ip), vehicle: saline 114 % of control and 105 % of control | endpoint: median survival time, dose: 10.0 mg/kg/injection, schedule: Q01DX009 (ip), vehicle: saline 117 % of control | endpoint: median survival time, dose: 20.0 mg/kg/injection, schedule: Q01DX009 (ip), vehicle: saline 117 % of control | endpoint: median survival time, dose: 40.0 mg/kg/injection, schedule: Q01DX009 (ip), vehicle: saline 114 % of control and 117 % of control

CN(C)NCc1ccccc1
inactive: endpoint: mean survival time, dose: 25.0 mg/kg/injection, schedule: Q01DX009 (ip), vehicle: saline 102 % of control | endpoint: mean survival time, dose: 50.0 mg/kg/injection, schedule: Q01DX009 (ip), vehicle: saline 102 % of control | endpoint: mean survival time, dose: 100.0 mg/kg/injection, schedule: Q01DX009 (ip), vehicle: saline 94 % of control and 107 % of control

Nc1ncnc2cc3c(cc12)ncn3C1OC(CO)C(O)C1O (configuration not stated)
inactive: endpoint: mean survival time, dose: 12.5 mg/kg/injection, schedule: Q01DX005 (ip), vehicle: water 92 % of control | endpoint: mean survival time, dose: 25.0 mg/kg/injection, schedule: Q01DX005 (ip), vehicle: water 104 % of control | endpoint: mean survival time, dose: 50.0 mg/kg/injection, schedule: Q01DX005 (ip), vehicle: water 104 % of control | endpoint: mean survival time, dose: 100.0 mg/kg/injection, schedule: Q01DX005 (ip), vehicle: water 112 % of control | endpoint: mean survival time, dose: 200.0 mg/kg/injection, schedule: Q01DX005 (ip), vehicle: water 110 % of control

C1=N/C=C\C=C/c2ccc[n+](CCCCC[n+]3ccccc3-c3ccccn3)c21
inactive: endpoint: mean survival time, dose: 7.5 mg/kg/injection, schedule: Q01DX001 (ip), vehicle: saline 98 % of control | endpoint: mean survival time, dose: 7.5 mg/kg/injection, schedule: Q04DX003 (ip), vehicle: saline 108 % of control | endpoint: mean survival time, dose: 15.0 mg/kg/injection, schedule: Q01DX001 (ip), vehicle: saline 98 % of control | endpoint: mean survival time, dose: 15.0 mg/kg/injection, schedule: Q04DX003 (ip), vehicle: saline 100 % of control | endpoint: mean survival time, dose: 30.0 mg/kg/injection, schedule: Q01DX001 (ip), vehicle: saline 98 % of control | endpoint: mean survival time, dose: 30.0 mg/kg/injection, schedule: Q04DX003 (ip), vehicle: saline 102 % of control

CCCCCCCCC(CCCCCCCC)CCCC1CCCC1
inactive: endpoint: mean survival time, dose: 100.0 mg/kg/injection, schedule: Q01DX001 (ip), vehicle: saline with Tween-80 95 % of control | endpoint: mean survival time, dose: 200.0 mg/kg/injection, schedule: Q01DX001 (ip), vehicle: saline with Tween-80 110 % of control | endpoint: mean survival time, dose: 400.0 mg/kg/injection, schedule: Q01DX001 (ip), vehicle: saline with Tween-80 103 % of control
